The values below come from PMC6891464, “Radiosynthesis and Biological Investigation of a Novel Fluorine-18 Labeled Benzoimidazotriazine-Based Radioligand for the Imaging of Phosphodiesterase 2A with Positron Emission Tomography” (Molecules, 2019).

Data set [1] has as its system PDE2A. The data set can be described thus: In vitro autoradiography on pig brain cryosections, blocking studies. To be noted: 10 µM blocker. The data set is classed as binding. As for the experimental part:
To verify these findings, blocking studies with 10 µM of TA1 (a potent PDE2 ligand)
Pig brain cryosections (16 µm; Microm HM560 Cryostat, FischerScientific GmbH, Schwerte, Germany) were thawed, dried in a stream of cold air, and preincubated for 10 min with buffer (50 mM TRIS-HCl, pH 7.4, 120 mM NaCl, 5 mM KCl, 2 mM MgCl2) at room temperature. […] The sections were then washed twice with ice-cold 50 mM TRIS-HCl (pH 7.4), dipped in ice-cold deionized water, dried in a stream of cold air, and exposed for 60 min to an image plate. The analysis was performed using an image plate scanner (HD-CR 35; Duerr NDT GmbH, Bietigheim Bissingen, Germany).

A short description of data set [2]: In vitro stability of the radioligand. The data set is classed as physicochemical. To be noted: PBS, pig plasma, n-octanol and saline formulation containing 10% ethanol; 40 °C, up to 1 h. As for the experimental part:
(§1) The lipophilicity was determined by the shake-flask method in the n-octanol/PBS system. […] Moreover, the big discrepancy between the experimental and the calculated logD7.4 value was already observed for our PDE2 tracer [^18F]TA5 and has been previously discussed. It is assumed that the experimentally determined higher hydrophilicity of [^18F]TA5 might be due to the solvation effect related to hydrogen bonding and ionization of the radioligand in the aqueous buffered system. Whereas with the software-based determination, this effect may be underestimated. Therefore, the calculated logD value is often higher than the experimentally determined value.
Samples were taken at 30 and 60 min and analyzed by radio-TLC and radio-HPLC.

The nature of data set [3]: Lipophilicity by shake-flask method (n-octanol/PBS). The data set is classed as physicochemical. The following applies: n-octanol/PBS pH 7.4, ambient temperature, read-out: logD7.4. As for the experimental part:
as §1
The tubes were shaken for 20 min using a mechanical shaker (HS250 basic, IKA Labortechnik GmbH & Co. KG, Staufen, Germany) followed by centrifugation (5000 rpm for 5 min) and separation of the phases. Aliquots of 1 mL of the organic and the aqueous phase were taken, and the activity was measured using an automated gamma counter (1480 WIZARD, Fa. Perkin Elmer, Waltham, MA, USA). The distribution coefficient (D) was calculated as [activity (cpm/mL) in n-octanol]/[(activity (cpm/mL) in PBS], specified as the decadic logarithm (logD).

A short description of data set [4]: In vivo metabolism of the radioligand in mice. The following applies: i.v., 30 min p.i., radio-HPLC. Also on record: species or system mouse. As for the experimental part:
Prior to the analysis with RP-HPLC, the samples were treated with a mixture of MeCN/H2O (4:1, v/v) to precipitate the proteins. The recovery of radioactivity in plasma and brain samples was 96% and 99%, respectively. […] As shown in the chromatograms (Figure 5), the two radio-metabolites ([^18F]M1 and [^18F]M2) found in the brain were also observed in the corresponding plasma sample, indicating their ability to penetrate the blood-brain barrier. […] On the basis of the in vitro metabolites M1 and M2, both elucidated by LC-MS in the mentioned study, we can conclude about the brain penetrating radio-metabolites [^18F]M1 and [^18F]M2 as products of N-oxidation or C-hydroxylation. Besides, some of the more polar radio-metabolites detected in plasma could only tentatively be assigned as formed by mono-oxygenation, di-oxygenation, reduction, and demethylation, but were not investigated further. […]
Protein precipitation of plasma and brain samples was performed in duplicate with ice-cold MeCN/H2O (8:2, v/v), which was added to the samples (sample/solvent, 1:4, v/v). […] The combined supernatants were concentrated at 70 °C under nitrogen stream until a remaining volume of 100 µL and subsequently quantified by analytical radio-HPLC with an isocratic system (42% MeCN/20 mM NH4OAcaq.; flow rate: 1.0 mL/min). […]

For data set [5], the target named is T1, PDE2A (Mus musculus, UniProt Q922S4).
T1 construct: from tissue; host or cells: brain of living female CD-1 mice (in vivo PET)
T1 sequence (Q922S4 1-939): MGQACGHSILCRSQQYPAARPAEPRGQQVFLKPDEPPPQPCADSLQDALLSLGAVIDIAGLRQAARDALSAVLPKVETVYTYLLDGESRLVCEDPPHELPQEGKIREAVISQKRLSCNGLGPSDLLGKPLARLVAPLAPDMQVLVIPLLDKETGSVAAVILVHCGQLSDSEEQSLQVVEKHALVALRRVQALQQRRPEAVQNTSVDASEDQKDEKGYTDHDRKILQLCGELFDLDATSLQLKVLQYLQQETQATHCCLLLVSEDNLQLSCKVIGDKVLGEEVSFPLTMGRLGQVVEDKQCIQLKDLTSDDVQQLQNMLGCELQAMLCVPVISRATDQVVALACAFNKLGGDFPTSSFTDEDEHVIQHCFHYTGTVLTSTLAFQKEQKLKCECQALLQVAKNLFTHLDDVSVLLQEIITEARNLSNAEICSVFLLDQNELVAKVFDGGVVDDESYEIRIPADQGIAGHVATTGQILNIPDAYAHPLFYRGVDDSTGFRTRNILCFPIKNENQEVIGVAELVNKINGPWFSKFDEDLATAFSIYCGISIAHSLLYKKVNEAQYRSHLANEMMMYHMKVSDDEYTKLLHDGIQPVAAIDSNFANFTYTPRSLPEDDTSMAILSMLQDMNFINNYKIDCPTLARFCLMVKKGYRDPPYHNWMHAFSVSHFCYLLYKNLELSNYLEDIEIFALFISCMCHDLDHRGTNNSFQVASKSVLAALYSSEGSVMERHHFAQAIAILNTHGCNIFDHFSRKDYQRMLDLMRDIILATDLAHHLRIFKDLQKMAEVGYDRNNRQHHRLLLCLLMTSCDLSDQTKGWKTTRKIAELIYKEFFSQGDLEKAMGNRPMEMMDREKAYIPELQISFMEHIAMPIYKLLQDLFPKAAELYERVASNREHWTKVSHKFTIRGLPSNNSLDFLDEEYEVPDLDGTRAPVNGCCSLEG
The data set can be described thus: Dynamic PET-MRI studies in CD-1 mice. To be noted: female CD-1 mice, i.v., 5 min p.i.; whole brain, striatum and cerebellum. The data set is classed as in vivo. As to the method:
As reflected by the time-activity curves (TACs) shown in Figure 6, the radioactivity uptake in the whole brain, striatum, and cerebellum reached standardized uptake values (SUVs) of about 0.7 at 5 min p.i., indicating blood-brain barrier penetration.
PET/MRI scans were performed using a preclinical PET/MRI system (nanoScan, Mediso Medical Imaging Systems, Budapest, Hungary). Animals were anesthetized with a mixture of air/isoflurane (2.0%, 200 mL/min) (Anesthesia Unit U-410, agntho’s, Lidingö, Sweden), and their body temperature maintained at 37 °C with a thermal bed system. […] A dynamic 60-min PET scan was started 20 sec before radioligand injection. The list-mode data were reconstructed into 33 frames (12 × 10 sec, 6 × 30 sec, 5 × 1 min, 10 × 5 min) with 3D-ordered subset expectation maximization, 4 iterations, and 6 subsets, using an energy window of 400 to 600 KeV and coincidence mode of 1–5. After the PET scan, an MRI scan was performed for anatomical orientation and attenuation correction on a 1T magnet using a T1-weighted gradient-echo sequence (TR = 15 ms, TE = 2.6 ms). The data analysis was done with PMOD (PMOD Technologies Ltd., Zurich, Switzerland, v. 3.6), and an atlas-based method was used to obtain SUV time-activity curves for the striatum, cerebellum, and the whole brain.

A further data set deals with hPDE2A. The following applies: cited from earlier work.
The test system of another data set is hPDE10A. Also on record: method as in PMID 24189054, PMID 23651455. To be noted: cited from earlier work.
Data set [6] concerns PDE2A. The following applies: cited from earlier work.
The subject of the next data set is PDE10A. To be noted: cited from earlier work.

A word on the IC50: it is the midpoint of a concentration-inhibition curve.

With `COc1ccc(Cl)c(-c2nc(C)c3nnc4ccc(-c5ccnc(F)c5)cc4n23)c1` [BIT1, 1-(2-chloro-5-methoxyphenyl)-8-(2-fluoropyridin-4-yl)-3-methylbenzo[e]imidazo[5,1-c][1,2,4]triazine], in the data set on PDE2A [1] (1.72 nM [18F]BIT1), the “decrease of [18F]BIT1 binding in caudate nucleus (Cd)” value was ~ 50% and the “decrease of [18F]BIT1 binding in nucleus accumbens (Acb)” value is recorded as ~ 30%. Moreover, the “decrease of [18F]BIT1 binding in cerebellum (Cb)” value with PDE2A [1] (1.72 nM [18F]BIT1, non-PDE2A region) is 20–30%.

As for `COc1ccc(Cl)c(-c2nc(C)c3nnc4ccc(-c5ccnc([18F])c5)cc4n23)c1` [[^18F]BIT1], in data set [2], the “in vitro stability (radiochemical purity after incubation)” value is given as no less than 99%. For the same compound, the logD in [3] came to 1.81 ± 0.05. The “intact tracer, fraction of total activity in brain” value in data set [4] (brain homogenate) was 78%. Further, the “intact tracer, fraction of total activity in plasma” value in data set [4] worked out at 43%. Moreover, at PDE2A [5], the “standardized uptake value (SUV) in brain” value was ~ 0.7.

On to `Cc1nc(-c2cnn(C)c2-c2ccc(C(F)(F)F)cc2)c2c(N3CC([18F])C3)ncnn12` [[^18F]PF-05270430], for which the values for the IC50 in the data set on hPDE2A and in the data set with hPDE10A were 0.5 nM and greater than 3000 nM, respectively.

Take `COc1ccc2nnc3c(C)nc(-c4cc(OCCC[18F])ccc4F)n3c2n1` [[^18F]TA3]: the figures for the IC50 in the data set on PDE2A [6] and with PDE10A were 11.4 nM and 318 nM, respectively.

As for `COc1ccc2nnc3c(C)nc(-c4cc(OCCCC[18F])ccc4F)n3c2n1` [[^18F]TA4], the IC50 with PDE2A [6] was 7.3 nM; in the data set with PDE10A, 913 nM.

As for `CCCCOc1ccc(F)c(-c2nc(C)c3nnc4ccc(OCC[18F])nc4n23)c1` [[^18F]TA5], in the data set on PDE10A, the IC50 is greater than 1000 nM.
